Reference: patent publication US11219697B2, “Osteoadsorptive fluorogenic substrate of cathepsin k for imaging osteoclast activity and migration” (The Regents of the University of California, priority 2017, dated 2022)
“Also recorded” adds a separate entry of the source. Like-named read-outs stand apart in the source and are kept apart here. *: point of attachment. pamidronate = 1-hydroxy-1,1-bisphosphonate, amide on Lys carboxyl, O=P(O)(O)C(O)(CCN*)P(=O)(O)O; BHQ‑1 = Black Hole Quencher-1; βAla = NCCC(=O)O

Assays:
Cathepsin K [1] = target: T1, Cathepsin K (Homo sapiens, UniProt P43235); settings: values found in literature; cited from earlier work
T1 construct: purchased Enzo Life Sciences
T1 sequence (P43235 115-329): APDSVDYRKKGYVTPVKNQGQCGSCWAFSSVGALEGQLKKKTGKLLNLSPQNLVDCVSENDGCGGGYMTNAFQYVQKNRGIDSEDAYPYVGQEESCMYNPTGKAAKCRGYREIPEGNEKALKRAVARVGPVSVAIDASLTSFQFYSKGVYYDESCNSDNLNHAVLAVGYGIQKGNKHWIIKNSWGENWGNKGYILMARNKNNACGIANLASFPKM

Cathepsin K [2] = target: T1, Cathepsin K; test: Enzyme studies: cleavage of the probe by activated cathepsin K, initial rates, Lineweaver-Burke plot; assay type: biochemical
Method: Kinetic parameters Kcat and Km were determined from initial rates at 37° C. and pH 5.5 in a buffer consisting of 50 mM sodium acetate buffer with 2.5 mM EDTA, 1 mM DTT and 0.01% TRITON X-100®. Enzyme concentration was 2.5 nM, substrate concentration ranged from 0.0781 to 2.50 μM. Fluorescence measurements were done every 1 min using a Biotek Synergy H4 plate reader with black Corning 3720 96-well plates. Parameters were determined using a Lineweaver-Burke plot. Fluorescence calibration was obtained using compound 9a at concentrations between 0.00977 and 2.5 μM. Background fluorescence was estimated using intact 10a at concentrations ranging from 0.0781 to 2.50 μM.
Cathepsin K was prepared by activation of procathepsin K purchased from Enzo Life Sciences. Activation was carried out by adding […], pH 3.5 sodium acetate buffer in a 1:2 ratio to as-received proenzyme solution and leaving at 21° C. for 30 min before dilution with assay buffer. Solutions of activated enzyme were stored on ice and used within 10 min. Buffers were prepared in house according to concentrations provided by Enzo Life Sciences.

[3] = Adsorption on calcium phosphate substrates; assay type: physicochemical
[4] = system: monocyte-derived human osteoclasts; test: Osteoclasts cultured on calcium phosphate coated microwells preadsorbed with probe, fluorescence timelapse; assay type: cell-based
Description: We attribute this to a lack of calcium phosphate for the probe to bind to. In several cases, osteoclasts can be seen migrating on the surface without completely dissolving the calcium phosphate and leaving a trail of enhanced fluorescence in their wake (see, e.g., FIG. 4). This is how the probe is presumed to function in vivo, by fluorescently labeling any regions exposed to osteoclast resorptive activity. […] Another phenomenon observed in all videos was a transient decrease in fluorescence within the boundaries of the osteoclast sealing zone, seen as rapidly moving dark areas around the cells (see, e.g., FIG. 5). This effect was expected and results from the pH sensitivity of carboxyfluorescein. The pH under an active osteoclast has been reported to be as low as 4.5 (Teitelbaum (2000) Science, 289(5484): 1504-1508). Carboxyfluorescein cyclizes to a nonfluorescent form when protonated and has a pKa of approximately 6.5 (Han & Burgess (2010) Chem. Rev. 110: 2709-2728; Massou et al. (2000) Biochem. Educ. 28:171-173). Thus fluorescent intensity is decreased. This is further evidence that the probe is exposed to the sub-osteoclast environment as intended. Another phenomenon observed in the timelapses was concentrated fluorescent intensity in cells themselves, both attached and detached from the substrate. […]

human osteoclasts = test: Human osteoclasts co-cultured with human multiple myeloma cells (8226-LUC); assay type: cell-based; settings: co-cultured with 8226-LUC
osteoclast activity = test: Fluorescence imaging of maxilla ex vivo in mice after tooth extraction; settings: young mice, 5 nMol/mouse
Description: FIG. 8, panels a-c, show White light (left) and fluorescence (right) images of mice after tooth extraction. Panel a) Vehicle control; Panel b) OFS-1 (5a) 5 nMol/mouse; Panel c) Positive control (4a) 5 nMol/mouse

[5] = system: 8226-LUC human multiple myeloma cells; test: OFS-1 activation by multiple myeloma in humanized BLT mice; assay type: in vivo; settings: humanized mice carrying 8226-LUC cells
Method: FIG. 9, panels a-c, illustrates OFS-1 activation by multiple myeloma in humanized mice. 8226-LUC human multiple myeloma cells were injected to humanized BLT mice.

[6] = cited from earlier work

In the case of Abz-HPGGPQ-EDN2Ph, the “Kcat (literature value)” value (Cathepsin K [1]) is listed as 0.5 ± 0.03 s⁻¹ and the Km (Cathepsin K [1]) is listed as 1.2 ± 0.2 µM.

In the case of “OFS-1: bone-targeted pamidronate probe with 5-FAM fluorophore and BHQ-1 quencher linked by cathepsin K peptide Gly-His-Pro-Gly-Gly-Pro-Gln-Gly ({BHQ‑1}-GHPGGPQG-{βAla-K(5-FAM)-pamidronate})”, the Kcat (Cathepsin K [2]; in solution at 37° C., pH 5.5) is reported as 0.2 ± 0.03 s⁻¹, the Km (Cathepsin K [2]; in solution at 37° C., pH 5.5) is reported as 1.7 ± 0.2 µM and the “Cleavage/activation by cathepsin K” value (Cathepsin K [2]; purified cathepsin K) is reported as “cleaved by cathepsin K albeit at a slower rate; also recorded: activated by purified cathepsin K”. For the same molecule, the “Adsorption on calcium phosphate substrates” value [3] was “avidly adsorbed on calcium phosphate substrates; also recorded: found to adsorb on calcium phosphate substrates”, the “Fluorescent signal in response to osteoclast resorptive activity” value [4] was “give a fluorescent signal in response to resorptive activity” and the “Fluorescent signal in response to osteoclast resorptive activity” value ([4]; listed as USC FRET-1) was “increased fluorescence around cells that were actively resorbing hydroxyapatite (HA)”. The “OFS-1 activation by osteoclasts in co-culture with multiple myeloma cells” value (human osteoclasts) was “significantly increased OFS-1 activation”, the “Fluorescent signal in maxilla ex vivo after tooth extraction” value (osteoclast activity) was “increased fluorescent signal in maxilla ex vivo; also recorded: enhanced signal in response to tooth extraction” and the “Probe activation / fluorescent signal at multiple myeloma engrafted sites” value [5] was “localized at the multiple myeloma (8226-LUC) engrafted site; also recorded: Strong activation”.

In the case of `O=C(O)c1ccc2c(c1)C(=O)OC21c2ccc(O)cc2Oc2cc(O)ccc21` [Carboxyfluorescein, 5-carboxyfluorescein], the pKa [6] is listed as “approximately 6.5”.
